Experimental data from patent US20250241916A1, “TYROSINE KINASE INHIBITORS” (Nuvectis Pharma, Inc., priority 2022, published 2025).

Experiments:
[1] = biological target: T1, full-length human BTK[C481S] (GST-BTK[C481S]) (Homo sapiens, UniProt Q06187, C481S); test: Off-chip Mobility Shift Assay (MSA), tyrosine kinase inhibition, BTK[C481S]; type: biochemical; conditions: for inhibition at 0.5 µM: 0.5 μM compound
T1 construct: made in house
Procedure: (§1) Compound A was dissolved in dimethylsulfoxide (DMSO), and further diluted with assay buffer to a final concentration of 0.5 μmol/L. Reference compounds for assay control were prepared similarly. For BTK inhibition studies, full-length human BTK [2-659 (end) amino acids of accession number NP_000052] was expressed as N-terminal GST-fusion protein (103 kDa) using baculovirus expressionsystem. GST-BTK was purified by using glutathione sepharose chromatography. For BTK[C481S] inhibition studies, full-length human BTK [2-659 (end) amino acids and C481S of accession number NP_000052] was expressed as N-terminal GST-fusion protein (103 kDa) using baculovirusexpression system. GST-BTK[C481S] was purified by using glutathione sepharosechromatography.
(§2) A 4× Substrate/ATP/Metal solution was prepared with buffer (20 mmol/L HEPES, 0.01% Triton X-100, 5 mmol/L DTT, pH 7.5), and a 2× kinase solution was also prepared with buffer (20 mmol/L HEPES, 0.01% Triton X-100, 1 mmol/L DTT, pH 7.5). 5 μL of 4× compound solution, 5 μL of 4× Substrate/ATP/Metal solution, and 10 μL of 2× kinase solution were mixed and incubated in a well of polypropylene 384 well microplate for 1 hour at room temperature. 70 μL of Termination Buffer (QuickScout Screening Assist MSA) was added to the well. The reaction mixture was applied to LabChip™ system, and the product and substrate peptide peaks were separated and quantitated. The kinase reaction was evaluated by the product ratio calculated from peak heights of product (P) and substrate (S) peptides (P/(P+S)).
(§3) The readout value of reaction control (complete reaction mixture) was set as a 0% inhibition, and the readout value of background (Enzyme(−)) was set as a 100% inhibition, then the percent inhibition of each test solution was calculated (Table 2).

[2] = biological target: T2, full-length human BTK (GST-BTK) (Homo sapiens, UniProt Q06187); test: Off-chip Mobility Shift Assay (MSA), tyrosine kinase inhibition, BTK; type: biochemical; conditions: for inhibition at 0.5 µM: 0.5 μM compound
T2 construct: made in house
Procedure: as §1, §2, §3

[3] = system: pan cancer squamous lines; test: Sensitivity of cancer cell line panel (102 cell lines) to compound; type: cell-based; conditions: FIG. 1, p<0.05
Description: Examples of squamous cell carcinomas contemplated herein may include, but are not limited to, cutaneous squamous cell carcinoma, esophageal squamous cell carcinoma, head and neck squamous cell carcinoma, squamous cell carcinoma of the vulva, and lung squamous cell carcinoma.
A shift to the left represents increased sensitivity. Size of circles represents number of cell lines with alteration (minimum of cell lines per alteration).

[4] = system: Cal27 (tongue squamous cell carcinoma) xenograft; test: Cal27 mouse xenograft model, antitumor efficacy
Procedure: (§4) Prior to the in-life phase of the study, the animals were weighed and examined for signs of physical disorder. […] Tumor reads were collected every 2 days up to 28 days, starting treatment at 100 mm^3 tumor volume and ending at 2000 mm^3 tumor volume. A t-test was applied to determine the significance of differences in tumor volumes.
(§5) Dose materials were prepared weekly in aliquots and stored frozen at −20° C. until dosing. For enrollment of mice into study, subcutaneous tumor volumes were monitored daily until reaching a minimum palpable tumor volume (˜100 mm3 by caliper) in the required number of mice. […] Following randomization and study cohort assignment, each dose cohort was treated according to dosage and schedule. Mice were euthanized when study end points were reached.
(§6) Tumor volume measurements were performed every 2 days (up to 3 times per week) using a calibrated caliper. Tumor volumes were determined using the formula length (mm)×width (mm)×height (mm)×0.50.
(§7) A tumor volume humane endpoint was reached when a 20% loss in body weight (excluding tumor weight) was observed over a week, or a 15% loss in body weight over 2 to 3 day period, or if a body condition score less than 2 (Body Condition Scoring for scoring guide), or the tumor weight exceeded 10% of the non-tumor bearing body weight (tumor weight was calculated based on tumor height×length×width×0.50×density of 1 g/cm^3) or when the tumor exceeded 2000 mm^3 in size. Body weight measurements were performed every 2 days (up to 3 times per week) during the 28-day treatment period to coincide with tumor volume measurement schedule. A humane endpoint was reached when body weight loss exceeded 20%.
(§8) The abbreviation RTV28 (relative tumor volume, day 28)=[avg. tumor volume D28]/[avg. tumor volume at baseline]. The abbreviation TGI % (percent tumor growth inhibition)=(1−[RTV28 of the treated group]/[RTV28 vehicle])×100.

[5] = system: KYSE70 (esophageal squamous cell carcinoma) xenograft; test: KYSE70 mouse xenograft model, antitumor efficacy; conditions: for Avg. Baseline Tumor Volume: 40 mg/kg
Procedure: as §4, §5, §6, §7, §8

[6] = 40 mg/kg oral once daily, 28 days, p≤0.001 vs vehicle on Day 27
[7] = (1-RTV28 treated/RTV28 vehicle)x100, 40 mg/kg oral once daily
[8] = Day 27, 40 mg/kg oral once daily
[9] = Day 28, 40 mg/kg oral once daily
[10] = avg. tumor volume D28 / baseline, 40 mg/kg oral once daily

T1 sequence (Q06187 2-659 C481S): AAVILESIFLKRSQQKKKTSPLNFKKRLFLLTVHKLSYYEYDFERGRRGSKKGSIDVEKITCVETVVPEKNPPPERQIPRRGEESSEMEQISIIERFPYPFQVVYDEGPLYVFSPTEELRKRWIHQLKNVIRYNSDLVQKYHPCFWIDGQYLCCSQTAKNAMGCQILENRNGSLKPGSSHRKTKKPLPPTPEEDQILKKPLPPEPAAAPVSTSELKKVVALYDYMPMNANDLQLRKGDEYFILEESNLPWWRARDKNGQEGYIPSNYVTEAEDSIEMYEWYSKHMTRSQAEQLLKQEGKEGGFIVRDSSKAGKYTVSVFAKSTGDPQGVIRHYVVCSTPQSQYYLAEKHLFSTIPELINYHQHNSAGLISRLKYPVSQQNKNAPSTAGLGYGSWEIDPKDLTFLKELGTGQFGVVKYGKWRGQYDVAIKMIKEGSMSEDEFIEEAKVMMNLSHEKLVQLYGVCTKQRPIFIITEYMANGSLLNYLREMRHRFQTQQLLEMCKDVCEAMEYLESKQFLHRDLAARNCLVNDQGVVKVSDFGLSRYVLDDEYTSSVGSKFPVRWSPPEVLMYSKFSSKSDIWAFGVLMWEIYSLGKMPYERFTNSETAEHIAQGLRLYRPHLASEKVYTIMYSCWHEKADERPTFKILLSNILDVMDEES
T2 sequence (Q06187 2-659): as the sequence (Q06187 2-659 C481S) above, with S480C counted along it

SMILES: CNC1CCN(CCn2nc(-c3ccc(NC(=O)OC(C)(C)C)c(OC)c3)c3c(N)ncnc32)CC1 [Compound B, tert-butyl (4-(4-amino-1-(2-(4-(methylamino)piperidin-1-yl)ethyl)-1H-pyrazolo[3,4-d]pyrimidin-3-yl)-2-methoxyphenyl) carbamate]
- IC50 [1]: 16.3 nM
- inhibition at 0.5 µM [1]: 97.5%
- IC50 [2]: 12.5 nM
- inhibition at 0.5 µM [2]: 95.6%

SMILES: COc1cc(-c2nn(CCN3CCC(N(C)C)CC3)c3ncnc(N)c23)ccc1NC(=O)OC(C)(C)C [Compound A, tert-Butyl (4-(4-amino-1-(2-(4-(dimethylamino)piperidin-1-yl)ethyl)-1H-pyrazolo[3,4-d]pyrimidin-3-yl)-2-methoxyphenyl)carbamate]
- sensitivity of pan cancer squamous carcinomas (10logIC50) [3]: high sensitivity
- IC50 [1]: 16.3 nM
- inhibition at 0.5 µM [1]: 95.1%
- IC50 [2]: 12.5 nM
- inhibition at 0.5 µM [2]: 96.9%
- tumor growth inhibition [4, 6]: substantial TGI
- Tumor Growth Inhibition (TGI) [4, 7]: 86%
- average tumor volume on Day 27 [4, 8]: 91.4 mm3
- mean percent increase from baseline in body weight [4, 8]: 2.1%
- Avg. Day 28. Tumor Volume [4, 9]: 91.4 mm^3
- Relative Tumor Volume (RTV28) [4, 10]: 0.78
- Avg. Baseline Tumor Volume ([4]; baseline, 40 mg/kg oral once daily): 116.2 mm^3
- tumor growth inhibition [5, 6]: substantial tumor growth inhibition
- Tumor Growth Inhibition (TGI) [5, 7]: 95%
- average tumor volume on Day 27 [5, 8]: 31.5 mm^3
- mean percent increase from baseline in body weight [5, 8]: 2.0%
- decrease in tumor volume from baseline ([5]; Day 27 vs baseline, 40 mg/kg oral once daily): 71%
- Avg. Day 28. Tumor Volume [5, 9]: 31.5 mm^3
- Relative Tumor Volume (RTV28) [5, 10]: 0.29
- Avg. Baseline Tumor Volume ([5]; 40 mg/kg oral once daily): 109.8 mm^3
- Avg. Baseline Tumor Volume ([5]; 40 mg/kg oral once daily, listed as Cmpd A): 106.0 mm^3
